These results are taken from US8563553B2, “Compounds and compositions as protein kinase inhibitors” (Novartis AG, priority 2009, dated 2013).

Broadly, the IC50 is the midpoint of a concentration-inhibition curve.

The target in the assay is b-Raf(V600E) (Homo sapiens (Human), UniProt P15056, V600E). The assay is described as follows: Raf/Mek Amplified Luminescence Proximity Homogeneous Assay (Alpha Screen). In kind it is biochemical. The note with it: b-Raf(V600E) approximately 4 pM; biotinylated Mek, kinase dead approximately 10 nM; ATP 10 μM; pre-incubation 60 minutes; reaction 3 hours at room temperature; read-out: mut-B-RAF IC50. The procedure: Raf/Mek Amplified Luminescence Proximity Homogeneous Assay
Assay buffer: 50 mM Tris, pH 7.5, 15 mM MgCl2, 0.01% Bovine Serum Albumin (BSA), 1 mM dithiothreitol (DTT) Stop buffer: 60 mM ethylenediaminetetraacetic acid (EDTA), 0.01% Tween® 20 Bead buffer: 50 mM Tris, pH 7.5, 0.01% Tween® 20 […]
biotinylated Mek, kinase dead
Alpha Screen detection kit (available from PerkinElmer™, #6760617R)
Anti phospho-MEK1/2 (available from Cell Signaling Technology, Inc. #9121) 384 well assay plates (White Greiner® plates, #781207) […]
biotinylated Mek, Kinase dead approximately 10 nM
Pre-incubation time with compounds 60 minutes at room temperature
Reaction time 1 or 3 hours at room temperature
Raf and biotinylated Mek, kinase dead, were combined at 2× final concentrations in assay buffer (50 mM Tris, pH 7.5, 15 mM MgCl2, 0.01% BSA and 1 mM DTT) and dispensed 10 μl per well in assay plates (Greiner white 384 well assay plates #781207) containing 0.5 μl of 40× of a raf kinase inhibitor test compound diluted in 100% DMSO. The plate was incubated for 60 minutes at room temperature.
The Raf kinase activity reaction was started by the addition of 10 μL per well of 2×ATP diluted in assay buffer. […] Phosphorylated product was measured using a rabbit anti-p-MEK (Cell Signaling, #9121) antibody and the Alpha Screen IgG (ProteinA) detection Kit (PerkinElmer #6760617R), by the addition of 30 μL to the well of a mixture of the antibody (1:2000 dilution) and detection beads (1:2000 dilution of both beads) in bead buffer (50 mM Tris, pH 7.5, 0.01% Tween20). The additions were carried out under dark conditions to protect the detection beads from light. A lid was placed on top of the plate and incubated for 1 hour at room temperature, then the luminescence was read on a PerkinElmer Envision instrument. The concentration of each compound for 50% inhibition (IC50) was calculated by non-linear regression using XL Fit data analysis software.

Chain of b-Raf(V600E) (P15056 whole entry V600E): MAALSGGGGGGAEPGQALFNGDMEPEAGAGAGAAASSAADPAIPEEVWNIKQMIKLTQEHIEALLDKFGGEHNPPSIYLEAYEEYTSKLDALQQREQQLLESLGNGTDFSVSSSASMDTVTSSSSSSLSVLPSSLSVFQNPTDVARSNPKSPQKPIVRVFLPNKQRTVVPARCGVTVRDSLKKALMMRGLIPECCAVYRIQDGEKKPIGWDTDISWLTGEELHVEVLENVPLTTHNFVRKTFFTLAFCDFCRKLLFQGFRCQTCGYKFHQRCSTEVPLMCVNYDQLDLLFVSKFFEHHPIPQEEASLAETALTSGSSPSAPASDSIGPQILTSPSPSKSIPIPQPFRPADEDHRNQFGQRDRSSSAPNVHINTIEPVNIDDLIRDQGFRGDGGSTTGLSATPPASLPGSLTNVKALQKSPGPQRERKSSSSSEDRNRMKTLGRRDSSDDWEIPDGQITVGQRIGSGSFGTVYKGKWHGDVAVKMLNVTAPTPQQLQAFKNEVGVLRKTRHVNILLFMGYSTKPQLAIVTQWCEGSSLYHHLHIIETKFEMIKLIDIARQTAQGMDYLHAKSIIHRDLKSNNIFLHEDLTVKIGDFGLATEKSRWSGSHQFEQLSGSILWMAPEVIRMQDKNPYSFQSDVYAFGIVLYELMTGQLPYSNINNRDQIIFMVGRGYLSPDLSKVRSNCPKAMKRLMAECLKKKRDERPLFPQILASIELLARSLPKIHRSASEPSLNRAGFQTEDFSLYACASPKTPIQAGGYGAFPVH

Take `COC(=O)N[C@@H](C)CNc1nccc(-c2[nH]c(C3CC3)nc2-c2cccc(NS(C)(=O)=O)c2Cl)n1` [Example 1T, (S)-Methyl 1-(4-(4-(2-chloro-3-(methylsulfonamido)phenyl)-2-cyclopropyl-1H-imidazol-5-yl)pyrimidin-2-ylamino)propan-2-ylcarbamate]: the IC50 turned out to be 0.47 nM.
For `CS(=O)(=O)Nc1cc(Cl)cc(-c2nc(C3CC3)[nH]c2-c2ccnc(NCCC#N)n2)c1F` [Example 2A, N-(5-Chloro-3-(5-(2-(2-cyanoethylamino)pyrimidin-4-yl)-2-cyclopropyl-1H-imidazol-4-yl)-2-fluorophenyl)methanesulfonamide], the concentration for half-maximal inhibition (IC50) stood at 0.08 nM.
The same measure for `CCNc1nccc(-c2[nH]c(C3CC3)nc2-c2cc(F)cc(NS(C)(=O)=O)c2Cl)n1` [Example 1AQ, N-(2-Chloro-3-(2-cyclopropyl-5-(2-(ethylamino)pyrimidin-4-yl)-1H-imidazol-4-yl)-5-fluorophenyl)methanesulfonamide]: 11 nM; for `COC(=O)N[C@@H](C)CNc1nccc(-c2[nH]c(C3CC3)nc2-c2cc(Cl)cc(NS(=O)(=O)C(C)C)c2)n1` [Example 1M, (S)-Methyl 1-(4-(4-(3-chloro-5-(1-methylethylsulfonamido)phenyl)-2-cyclopropyl-1H-imidazol-5-yl)pyrimidin-2-ylamino)propan-2-ylcarbamate]: 0.63 nM.
The same measure for `CCCS(=O)(=O)Nc1cccc(-c2nc(C3CC3)[nH]c2-c2ccnc(NC[C@H](C)NC(=O)OC)n2)c1` [Example 4J, (S)-Methyl 1-(4-(2-cyclopropyl-4-(3-(propylsulfonamido)phenyl)-1H-imidazol-5-yl)pyrimidin-2-ylamino)propan-2-ylcarbamate]: 1 nM; for `COC(=O)N[C@@H](C)CNc1nccc(-c2[nH]c(C3CC3)nc2-c2cc(Cl)cc(NS(=O)(=O)c3cc(F)cc(F)c3)c2F)n1` [Example 1BM, (S)-Methyl 1-(4-(4-(5-chloro-3-(3,5-difluorophenylsulfonamido)-2-fluorophenyl)-2-cyclopropyl-1H-imidazol-5-yl)pyrimidin-2-ylamino)propan-2-ylcarbamate]: 0.37 nM.
The same measure for `CC(C)(C)c1nc(-c2cc(Cl)cc(NS(C)(=O)=O)c2F)c(-c2ccnc(N)n2)[nH]1` [Example 1BD, N-(3-(5-(2-Aminopyrimidin-4-yl)-2-tert-butyl-1H-imidazol-4-yl)-5-chloro-2-fluorophenyl)methanesulfonamide]: 3 nM; for `CC1(c2nc(-c3cc(Cl)cc(NS(C)(=O)=O)c3F)c(-c3ccnc(NCCC#N)n3)[nH]2)CC1` [Example 1BB, N-(5-Chloro-3-(5-(2-(2-cyanoethylamino)pyrimidin-4-yl)-2-(1-methylcyclopropyl)-1H-imidazol-4-yl)-2-fluorophenyl)methanesulfonamide]: 0.11 nM.
With `COC(=O)N[C@@H](C)CNc1nccc(-c2[nH]c(C(C)(C)C)nc2-c2cccc(NS(=O)(=O)C3CC3)c2F)n1` [Example 2B, (S)-Methyl 1-(4-(2-tert-butyl-4-(3-(cyclopropanesulfonamido)-2-fluorophenyl)-1H-imidazol-5-yl)pyrimidin-2-ylamino)propan-2-ylcarbamate], the IC50 was 0.27 nM.
The same measure for `COC(=O)N[C@@H](C)CNc1nccc(-c2[nH]c(C(C)(C)C)nc2-c2cc(Cl)cc(NS(C)(=O)=O)c2)n1` [Example 1C, (S)-Methyl 1-(4-(2-tert-butyl-4-(3-chloro-5-(methylsulfonamido)phenyl)-1H-imidazol-5-yl)pyrimidin-2-ylamino)propan-2-ylcarbamate]: 0.32 nM; for `COC(=O)N[C@@H](C)CNc1nccc(-c2[nH]c(-c3ccc(C(F)(F)F)cc3)nc2-c2cc(F)cc(NS(C)(=O)=O)c2Cl)n1` [Example 1BZ, (S)-Methyl 1-(4-(4-(2-chloro-5-fluoro-3-(methylsulfonamido)phenyl)-2-(4-(trifluoromethyl)phenyl)-1H-imidazol-5-yl)pyrimidin-2-ylamino)propan-2-ylcarbamate]: 2 nM.
The value for `CCCS(=O)(=O)Nc1cc(Cl)cc(-c2[nH]c(C(C)(C)C)nc2-c2ccnc(NC[C@H](C)NC(=O)OC)n2)c1F` [Example 4F, (S)-Methyl 1-(4-(2-tert-butyl-5-(5-chloro-2-fluoro-3-(propylsulfonamido)phenyl)-1H-imidazol-4-yl)pyrimidin-2-ylamino)propan-2-ylcarbamate] was 0.53 nM; that for `COC(=O)N[C@@H](C)CNc1nccc(-c2[nH]c(C(C)(C)C)nc2-c2cccc(NS(=O)(=O)CCC(F)(F)F)c2F)n1` [Example 4E, (S)-Methyl 1-(4-(2-tert-butyl-4-(2-fluoro-3-(3,3,3-trifluoropropylsulfonamido)phenyl)-1H-imidazol-5-yl)pyrimidin-2-ylamino)propan-2-ylcarbamate] was 1.08 nM; that for `CCCS(=O)(=O)Nc1ccc(F)c(-c2nc(C3CC3)[nH]c2-c2ccnc(NC[C@H](C)NC(=O)OC)n2)c1Cl` [Example 1AF, Methyl (2S)-1-(4-(4-(2-chloro-6-fluoro-3-(propylsulfonamido)phenyl)-2-cyclopropyl-1H-imidazol-5-yl)pyrimidin-2-ylamino)propan-2-ylcarbamate] was 0.45 nM.
The same measure for `CCCNc1nccc(-c2[nH]c(C3CC3)nc2-c2cc(F)cc(NS(=O)(=O)CCC)c2Cl)n1` [Example 1AN, N-(2-Chloro-3-(2-cyclopropyl-5-(2-(propylamino)pyrimidin-4-yl)-1H-imidazol-4-yl)-5-fluorophenyl)propane-1-sulfonamide]: 0.39 nM; for `COC(=O)N[C@@H](C)CNc1nccc(-c2[nH]c(C3CC3)nc2-c2cc(F)cc(NS(=O)(=O)c3c(F)cccc3F)c2Cl)n1` [Example 1BI, (S)-Methyl 1-(4-(4-(2-chloro-3-(2,6-difluorophenylsulfonamido)-5-fluorophenyl)-2-cyclopropyl-1H-imidazol-5-yl)pyrimidin-2-ylamino)propan-2-ylcarbamate]: 0.1 nM; for `CCCNc1nccc(-c2[nH]c(C3CC3)nc2-c2cc(F)cc(NS(C)(=O)=O)c2Cl)n1` [Example 1AP, N-(2-Chloro-3-(2-cyclopropyl-5-(2-(propylamino)pyrimidin-4-yl)-1H-imidazol-4-yl)-5-fluorophenyl)methanesulfonamide]: 5 nM.
As to `CNc1nccc(-c2[nH]c(C3CC3)nc2-c2cc(F)cc(NS(=O)(=O)c3c(F)cccc3F)c2Cl)n1` [Example 1BV, N-(2-Chloro-3-(2-cyclopropyl-5-(2-(methylamino)pyrimidin-4-yl)-1H-imidazol-4-yl)-5-fluorophenyl)-2,6-difluorobenzenesulfonamide], the half-maximal inhibitory concentration (IC50) came out at 1 nM.
The value for `Nc1nccc(-c2[nH]c(C3CC3)nc2-c2cc(Cl)cc(NS(=O)(=O)c3c(F)cccc3F)c2F)n1` [Example 1BF, N-(3-(5-(2-Aminopyrimidin-4-yl)-2-cyclopropyl-1H-imidazol-4-yl)-5-chloro-2-fluorophenyl)-2,6-difluorobenzenesulfonamide] was 0.1 nM.
With `CC(C)CNc1nccc(-c2[nH]c(C3CC3)nc2-c2cc(F)cc(NS(C)(=O)=O)c2Cl)n1` [Example 1AR, N-(2-Chloro-3-(2-cyclopropyl-5-(2-(isobutylamino)pyrimidin-4-yl)-1H-imidazol-4-yl)-5-fluorophenyl)methanesulfonamide], the IC50 is 5 nM.
The same measure for `CC(C)Nc1nccc(-c2[nH]c(C3CC3)nc2-c2cc(F)cc(NS(C)(=O)=O)c2Cl)n1` [Example 1AT, N-(2-Chloro-3-(2-cyclopropyl-5-(2-(isopropylamino)pyrimidin-4-yl)-1H-imidazol-4-yl)-5-fluorophenyl)methanesulfonamide]: 25 nM.
The same measure for `COC(=O)N[C@@H](C)CNc1nccc(-c2[nH]c(C3CC3)nc2-c2cccc(NS(C)(=O)=O)c2F)n1` [Example 1U, (S)-Methyl 1-(4-(2-cyclopropyl-4-(2-fluoro-3-(methylsulfonamido)phenyl)-1H-imidazol-5-yl)pyrimidin-2-ylamino)propan-2-ylcarbamate]: 0.55 nM; for `CCS(=O)(=O)Nc1cc(Cl)cc(-c2nc(C(C)(C)C)[nH]c2-c2ccnc(NC[C@H](C)NC(=O)OC)n2)c1` [Example 1I, (S)-Methyl 1-(4-(2-tert-butyl-4-(3-chloro-5-(ethylsulfonamido)phenyl)-1H-imidazol-5-yl)pyrimidin-2-ylamino)propan-2-ylcarbamate]: 0.1 nM; for `CS(=O)(=O)Nc1cc(F)cc(-c2nc(C3CC3)[nH]c2-c2ccncn2)c1Cl` [Example 2J, N-(2-Chloro-3-(2-cyclopropyl-5-(pyrimidin-4-yl)-1H-imidazol-4-yl)-5-fluorophenyl)methanesulfonamide]: 87 nM.
